Measured values reported in article PMC10382584, “Macrocyclization of linear molecules by deep learning to facilitate macrocyclic drug candidates discovery” (Nature Communications, 2023).

What was measured:
Assay in all cases: biochemical
Parameters in all cases: DiscoveRx KINOMEscan competition binding, percent of DMSO control signal at 100 nM
Conditions in all cases: read-out: Fig. 4a / Percent Control / Compound 1; percent of DMSO control, competition binding
[1] = target: CLK2 (Homo sapiens, UniProt P49760)
[2] = target: KIT(D816V) (Homo sapiens, UniProt P10721, D816V)
[3] = target: PKN2 (Homo sapiens, UniProt Q16513)
[4] = target: EPHA2 (Homo sapiens, UniProt P29317)
Chain of EPHA2 (P29317 whole entry): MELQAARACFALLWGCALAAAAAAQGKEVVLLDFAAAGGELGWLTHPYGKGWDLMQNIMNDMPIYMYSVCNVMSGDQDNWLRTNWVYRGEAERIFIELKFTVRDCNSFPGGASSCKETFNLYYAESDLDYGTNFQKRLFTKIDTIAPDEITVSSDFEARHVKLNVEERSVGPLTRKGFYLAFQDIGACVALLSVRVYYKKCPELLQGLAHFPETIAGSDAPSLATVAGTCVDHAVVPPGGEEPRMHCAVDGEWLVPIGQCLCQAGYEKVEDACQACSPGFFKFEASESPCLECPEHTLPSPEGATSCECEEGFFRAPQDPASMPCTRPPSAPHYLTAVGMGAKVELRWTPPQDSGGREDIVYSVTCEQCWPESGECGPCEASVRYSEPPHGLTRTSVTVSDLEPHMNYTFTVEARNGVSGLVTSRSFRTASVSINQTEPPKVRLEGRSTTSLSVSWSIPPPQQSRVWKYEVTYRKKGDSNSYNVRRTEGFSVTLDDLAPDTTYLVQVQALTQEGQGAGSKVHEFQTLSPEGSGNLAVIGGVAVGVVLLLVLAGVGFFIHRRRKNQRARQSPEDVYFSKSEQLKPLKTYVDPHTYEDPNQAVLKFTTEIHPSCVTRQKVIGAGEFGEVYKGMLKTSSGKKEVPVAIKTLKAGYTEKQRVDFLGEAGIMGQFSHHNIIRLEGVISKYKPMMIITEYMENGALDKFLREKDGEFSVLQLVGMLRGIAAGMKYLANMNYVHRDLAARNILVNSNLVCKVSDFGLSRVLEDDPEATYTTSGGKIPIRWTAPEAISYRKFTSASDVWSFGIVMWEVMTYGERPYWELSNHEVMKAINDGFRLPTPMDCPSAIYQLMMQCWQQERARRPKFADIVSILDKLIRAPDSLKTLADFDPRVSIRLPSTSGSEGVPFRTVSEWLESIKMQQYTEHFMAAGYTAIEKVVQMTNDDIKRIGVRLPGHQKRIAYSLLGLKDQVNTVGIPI

[5] = target: PRKCQ (Homo sapiens, UniProt Q04759)
Chain of PRKCQ (Q04759 whole entry): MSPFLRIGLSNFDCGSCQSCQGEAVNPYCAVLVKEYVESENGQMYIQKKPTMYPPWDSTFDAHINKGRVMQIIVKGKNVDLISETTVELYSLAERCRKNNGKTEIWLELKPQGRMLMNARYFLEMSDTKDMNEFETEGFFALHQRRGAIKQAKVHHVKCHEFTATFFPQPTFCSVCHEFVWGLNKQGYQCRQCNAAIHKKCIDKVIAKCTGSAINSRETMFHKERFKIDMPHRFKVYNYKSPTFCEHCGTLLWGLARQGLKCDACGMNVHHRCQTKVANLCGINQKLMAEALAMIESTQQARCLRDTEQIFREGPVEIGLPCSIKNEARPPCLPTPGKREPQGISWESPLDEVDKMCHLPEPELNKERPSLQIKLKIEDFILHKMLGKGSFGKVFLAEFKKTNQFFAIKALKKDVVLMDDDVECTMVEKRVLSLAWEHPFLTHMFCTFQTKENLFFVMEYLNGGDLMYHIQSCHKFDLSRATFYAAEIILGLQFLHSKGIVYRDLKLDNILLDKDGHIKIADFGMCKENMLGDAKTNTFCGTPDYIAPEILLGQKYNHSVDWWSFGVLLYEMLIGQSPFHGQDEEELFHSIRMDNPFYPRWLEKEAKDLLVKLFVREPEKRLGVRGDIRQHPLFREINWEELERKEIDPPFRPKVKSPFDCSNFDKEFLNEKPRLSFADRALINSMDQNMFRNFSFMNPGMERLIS

[6] = target: T1, RSK1(Kin.Dom.2-C-terminal) (Homo sapiens, UniProt Q15418)
T1 construct: gene RPS6KA1; Kin.Dom.2-C-terminal

[7] = target: BRAF (Homo sapiens, UniProt P15056)
[8] = target: T2, CDK11 (Homo sapiens, UniProt Q9BWU1)
T2 construct: gene CDK19

[9] = target: T3, CAMK1B (Homo sapiens, UniProt Q6P2M8)
T3 construct: gene PNCK

[10] = target: NLK (Homo sapiens, UniProt Q9UBE8)
[11] = target: T4, BIKE (Homo sapiens, UniProt Q9NSY1)
T4 construct: gene BMP2K

[12] = target: T5, MEK2 (Homo sapiens, UniProt P36507)
T5 construct: gene MAP2K2
T5 sequence (P36507 whole entry): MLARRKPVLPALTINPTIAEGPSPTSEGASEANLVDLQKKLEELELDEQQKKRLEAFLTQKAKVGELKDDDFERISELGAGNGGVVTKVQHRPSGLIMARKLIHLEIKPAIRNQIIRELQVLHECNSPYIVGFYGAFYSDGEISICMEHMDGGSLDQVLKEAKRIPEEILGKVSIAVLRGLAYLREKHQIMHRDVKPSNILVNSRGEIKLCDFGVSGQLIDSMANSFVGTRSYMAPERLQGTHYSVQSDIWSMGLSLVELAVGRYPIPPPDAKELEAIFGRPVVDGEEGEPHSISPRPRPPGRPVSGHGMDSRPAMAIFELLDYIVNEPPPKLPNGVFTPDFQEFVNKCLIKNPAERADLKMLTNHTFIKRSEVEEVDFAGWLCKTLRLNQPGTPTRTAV

[13] = target: PIM3 (Homo sapiens, UniProt Q86V86)
[14] = target: T6, ASK2 (Homo sapiens, UniProt O95382)
T6 construct: gene MAP3K6
T6 sequence (O95382 whole entry): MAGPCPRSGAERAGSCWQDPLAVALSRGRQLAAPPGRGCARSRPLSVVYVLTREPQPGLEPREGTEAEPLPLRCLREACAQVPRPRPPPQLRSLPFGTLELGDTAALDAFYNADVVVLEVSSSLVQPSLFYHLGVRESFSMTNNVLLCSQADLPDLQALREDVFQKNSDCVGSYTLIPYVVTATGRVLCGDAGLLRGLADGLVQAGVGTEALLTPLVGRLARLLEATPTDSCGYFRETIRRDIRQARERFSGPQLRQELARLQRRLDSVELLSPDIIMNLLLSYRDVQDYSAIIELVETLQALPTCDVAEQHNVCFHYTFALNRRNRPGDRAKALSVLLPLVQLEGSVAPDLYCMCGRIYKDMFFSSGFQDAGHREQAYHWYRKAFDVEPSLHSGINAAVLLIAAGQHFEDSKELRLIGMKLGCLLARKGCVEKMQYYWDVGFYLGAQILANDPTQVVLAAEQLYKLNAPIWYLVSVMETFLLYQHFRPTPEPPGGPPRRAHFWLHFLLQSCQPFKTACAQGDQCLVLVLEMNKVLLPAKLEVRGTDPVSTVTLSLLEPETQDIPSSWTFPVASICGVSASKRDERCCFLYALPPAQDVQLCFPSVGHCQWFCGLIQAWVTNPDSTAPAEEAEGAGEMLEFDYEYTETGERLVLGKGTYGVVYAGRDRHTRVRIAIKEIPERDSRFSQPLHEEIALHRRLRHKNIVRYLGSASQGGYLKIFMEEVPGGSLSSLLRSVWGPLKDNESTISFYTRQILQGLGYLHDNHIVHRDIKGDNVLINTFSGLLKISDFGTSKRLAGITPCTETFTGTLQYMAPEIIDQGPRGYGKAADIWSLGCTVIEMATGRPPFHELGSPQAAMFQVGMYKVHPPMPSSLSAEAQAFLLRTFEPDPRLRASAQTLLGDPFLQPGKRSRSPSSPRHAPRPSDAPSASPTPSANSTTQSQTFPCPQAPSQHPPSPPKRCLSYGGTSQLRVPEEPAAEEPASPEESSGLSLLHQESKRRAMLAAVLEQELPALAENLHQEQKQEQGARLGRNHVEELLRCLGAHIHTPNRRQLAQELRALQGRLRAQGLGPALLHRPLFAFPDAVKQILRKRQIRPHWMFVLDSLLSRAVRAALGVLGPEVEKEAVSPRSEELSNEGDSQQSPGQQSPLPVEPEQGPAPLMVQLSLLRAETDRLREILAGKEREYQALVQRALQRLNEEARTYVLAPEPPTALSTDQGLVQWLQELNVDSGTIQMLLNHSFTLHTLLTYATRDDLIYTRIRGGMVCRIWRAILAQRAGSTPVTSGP

[15] = target: EPHA5 (Homo sapiens, UniProt P54756)
[16] = target: ULK1 (Homo sapiens, UniProt O75385)
Chain of ULK1 (O75385 whole entry): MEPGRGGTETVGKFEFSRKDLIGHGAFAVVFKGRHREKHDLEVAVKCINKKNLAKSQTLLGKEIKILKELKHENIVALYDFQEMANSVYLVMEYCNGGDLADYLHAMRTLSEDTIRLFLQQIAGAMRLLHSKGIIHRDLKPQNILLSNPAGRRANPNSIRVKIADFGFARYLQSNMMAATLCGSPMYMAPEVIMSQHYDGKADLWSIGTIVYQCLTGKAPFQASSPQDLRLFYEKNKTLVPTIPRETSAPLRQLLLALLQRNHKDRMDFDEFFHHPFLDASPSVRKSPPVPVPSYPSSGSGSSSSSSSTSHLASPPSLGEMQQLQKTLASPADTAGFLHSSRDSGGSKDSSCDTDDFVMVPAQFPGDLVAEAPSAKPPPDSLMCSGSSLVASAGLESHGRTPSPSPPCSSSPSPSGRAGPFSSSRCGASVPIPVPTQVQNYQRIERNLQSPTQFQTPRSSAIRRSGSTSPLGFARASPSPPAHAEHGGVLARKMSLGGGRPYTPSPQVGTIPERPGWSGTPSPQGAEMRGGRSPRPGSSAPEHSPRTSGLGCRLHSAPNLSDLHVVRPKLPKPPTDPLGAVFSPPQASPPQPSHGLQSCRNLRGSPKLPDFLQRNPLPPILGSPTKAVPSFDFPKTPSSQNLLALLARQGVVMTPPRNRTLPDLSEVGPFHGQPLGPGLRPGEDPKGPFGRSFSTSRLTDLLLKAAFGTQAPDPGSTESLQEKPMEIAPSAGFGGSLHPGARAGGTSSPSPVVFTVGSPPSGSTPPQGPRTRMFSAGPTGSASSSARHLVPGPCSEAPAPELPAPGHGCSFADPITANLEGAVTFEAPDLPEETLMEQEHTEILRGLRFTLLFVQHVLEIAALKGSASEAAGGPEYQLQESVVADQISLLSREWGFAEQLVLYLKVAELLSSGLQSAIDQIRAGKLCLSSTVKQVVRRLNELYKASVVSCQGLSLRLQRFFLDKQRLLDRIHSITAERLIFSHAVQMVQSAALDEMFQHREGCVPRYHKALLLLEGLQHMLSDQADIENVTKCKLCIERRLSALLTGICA

[17] = target: TLK2 (Homo sapiens, UniProt Q86UE8)
[18] = target: CDKL1 (Homo sapiens, UniProt Q00532)
[19] = target: TLK1 (Homo sapiens, UniProt Q9UKI8)
[20] = target: AKT1 (Homo sapiens, UniProt P31749)
[21] = target: PIK3C2G (Homo sapiens, UniProt O75747)
[22] = target: HIPK1 (Homo sapiens, UniProt Q86Z02)
[23] = target: CHEK2 (Homo sapiens, UniProt O96017)
[24] = target: TRPM6 (Homo sapiens, UniProt Q9BX84)
[25] = target: T7, PCTK3 (Homo sapiens, UniProt Q07002)
T7 construct: gene CDK18
T7 sequence (Q07002 whole entry): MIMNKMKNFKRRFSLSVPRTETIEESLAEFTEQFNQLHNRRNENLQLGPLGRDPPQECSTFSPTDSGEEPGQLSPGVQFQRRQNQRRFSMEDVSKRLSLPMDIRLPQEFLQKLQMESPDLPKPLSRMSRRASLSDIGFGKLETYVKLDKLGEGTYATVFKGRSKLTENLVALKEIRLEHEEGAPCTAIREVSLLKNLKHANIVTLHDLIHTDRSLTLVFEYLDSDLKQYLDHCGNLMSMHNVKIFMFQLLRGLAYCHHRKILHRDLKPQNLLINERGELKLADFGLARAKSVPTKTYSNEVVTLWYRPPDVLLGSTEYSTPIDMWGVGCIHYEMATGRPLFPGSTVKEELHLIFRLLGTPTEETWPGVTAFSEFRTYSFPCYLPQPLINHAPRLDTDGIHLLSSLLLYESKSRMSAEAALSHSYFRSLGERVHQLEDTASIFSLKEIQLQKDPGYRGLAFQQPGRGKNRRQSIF
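Further: KINOMEscan kinase panel binding assay, signal normalized between DMSO as 100% and a positive control compound as 0%.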

Cc1cnc2nc1Nc1cccc(c1)COCc1cc(ccc1OCCN1CCCC1)N2 [Compound 1]
remaining binding at 0.1 µM [1]: 81%
remaining binding at 0.1 µM [2]: 89%
remaining binding at 0.1 µM [3]: 100%
remaining binding at 0.1 µM [4]: 82%
remaining binding at 0.1 µM [5]: 100%
remaining binding at 0.1 µM [6]: 98%
remaining binding at 0.1 µM [7]: 93%
remaining binding at 0.1 µM [8]: 96%
remaining binding at 0.1 µM [9]: 92%
remaining binding at 0.1 µM [10]: 95%
remaining binding at 0.1 µM [11]: 47%
remaining binding at 0.1 µM [12]: 72%
remaining binding at 0.1 µM [13]: 100%
remaining binding at 0.1 µM [14]: 96%
remaining binding at 0.1 µM [15]: 100%
remaining binding at 0.1 µM [16]: 52%
remaining binding at 0.1 µM [17]: 100%
remaining binding at 0.1 µM [18]: 86%
remaining binding at 0.1 µM [19]: 100%
remaining binding at 0.1 µM [20]: 100%
remaining binding at 0.1 µM [21]: 80%
remaining binding at 0.1 µM [22]: 66%
remaining binding at 0.1 µM [23]: 87%
remaining binding at 0.1 µM [24]: 85%
remaining binding at 0.1 µM [25]: 85%
